According to ChEMBL document CHEMBL1147490, “N-4-methansulfonamidobenzyl-N'-2-substituted-4-tert-butyl-benzyl thioureas as potent vanilloid receptor antagonistic ligands” (Bioorg Med Chem Lett, 2004):

Columns and labels:
Vanilloid receptor [1] = target: T1, Vanilloid receptor (Rattus norvegicus, UniProt Q9ERZ8+Q9WUD2+O35433); experiment: In vitro induction of 45 [Ca2+] influx in rat DRG neurons (ineffective at 30 uM, partial activity); assay type: functional
Vanilloid receptor [2] = target: T1, Vanilloid receptor; experiment: In vitro inhibitory concentration was determined against [45Ca2+]- influx in rat DRG neurons; assay type: functional

| EC50 (Vanilloid receptor [1]) | IC50 (Vanilloid receptor [2]) [nM] | Compound |
| --- | --- | --- |
| – | 220 | CC(C)(C)C(=O)Oc1cc(C(C)(C)C)ccc1C/N=C(\S)NCc1ccc(NS(C)(=O)=O)cc1 |
| – | 1100 | CCOc1cc(C(C)(C)C)ccc1C/N=C(\S)NCc1ccc(NS(C)(=O)=O)cc1 |
| – | 500 | COCOc1cc(C(C)(C)C)ccc1C/N=C(\S)NCc1ccc(NS(C)(=O)=O)cc1 |
| – | 2400 | COc1cc(C(C)(C)C)ccc1C/N=C(\S)NCc1ccc(NS(C)(=O)=O)cc1 |
| – | 60 | COCCOc1cc(C(C)(C)C)ccc1C/N=C(\S)NCc1ccc(NS(C)(=O)=O)cc1 |
| – | 60 | CC(C)(C)COc1cc(C(C)(C)C)ccc1C/N=C(\S)NCc1ccc(NS(C)(=O)=O)cc1 |
| – | 60 | CCCCOc1cc(C(C)(C)C)ccc1C/N=C(\S)NCc1ccc(NS(C)(=O)=O)cc1 |
| – | 250 | CCCOc1cc(C(C)(C)C)ccc1C/N=C(\S)NCc1ccc(NS(C)(=O)=O)cc1 |

Second part, the compound before the results:

| Compound | EC50 (Vanilloid receptor [1]) | IC50 (Vanilloid receptor [2]) [nM] |
| --- | --- | --- |
| CC(C)(C)c1ccc(CNC(=S)NCc2ccc(NS(C)(=O)=O)c(F)c2)cc1 | Partially active | – |
| CCCCOc1cc(C(C)(C)C)ccc1C/N=C(\S)NCc1ccc(NS(C)(=O)=O)c(F)c1 | Partially active | 20 |
| CC(=O)OCc1cc(C(C)(C)C)ccc1C/N=C(\S)NCc1ccc(NS(C)(=O)=O)cc1 | – | 580 |
| C=C(C)[C@]12C[C@@H](C)[C@@]34O[C@](Cc5ccccc5)(O[C@@H]1[C@@H]3C=C(COC(=O)Cc1cc(I)c(O)c(OC)c1)C[C@]1(O)C(=O)C(C)=C[C@@H]41)O2 [IODORESINIFERATOXIN] | – | 4000 |
| CC(C)Oc1cc(C(C)(C)C)ccc1C/N=C(\S)NCc1ccc(NS(C)(=O)=O)cc1 | – | 350 |
| COc1cc(CC/N=C(\S)NCCc2ccccc2)ccc1O | – | 320 |
| N/C(S)=N/N1CCCC1 | – | 3000 |
| CCCCCOc1cc(C(C)(C)C)ccc1C/N=C(\S)NCc1ccc(NS(C)(=O)=O)cc1 | – | 70 |
| CC(C)(C)c1ccc(C/N=C(\S)NCc2ccc(NS(C)(=O)=O)cc2)c(OCc2ccccc2)c1 | – | 770 |
| CC(C)(C)COc1cc(C(C)(C)C)ccc1C/N=C(\S)NCc1ccc(NS(C)(=O)=O)c(F)c1 | Partially active | 66 |
| Cc1cc(CN/C(S)=N/Cc2ccc(NS(C)(=O)=O)cc2)c(COC(=O)C(C)(C)C)cc1C | – | 70 |
| CCCCCCOc1cc(C(C)(C)C)ccc1C/N=C(\S)NCc1ccc(NS(C)(=O)=O)cc1 | – | 150 |
| CCCNCC(=O)N(CCC)CC(=O)N(CCC)CC(=O)O | – | 2000 |
| NC(=O)N1CCN(c2ccccn2)CC1 | – | 30 |
| CC(C)(C)C(=O)OCc1cc(C(C)(C)C)ccc1C/N=C(\S)NCc1ccc(NS(C)(=O)=O)cc1 | – | 70 |
| CC(C)(C)C(=O)OCc1cc(C(C)(C)C)ccc1C/N=C(\S)NCc1ccc(NS(C)(=O)=O)c(F)c1 | Partially active | 15 |
